# Laboratory results as given in ChEMBL document CHEMBL2040827, “Quinolizidinone carboxylic acids as CNS penetrant, selective m1 allosteric muscarinic receptor modulators” (ACS Med Chem Lett, 2010).
# Calls of active or inactive are those of the source. The calls are words filed in the database; no cut-off is given here.
# Tests used:
# [1] = target: T1, Muscarinic acetylcholine receptor M1 (Homo sapiens) (UniProt P11229); experiment: Positive allosteric modulation of human muscarinic M1 receptor expressed in CHO-NFAT cells assessed as potentiation of acetylcholine-induced calcium flux after 1 hr by FLIPR assay; type: functional, cell-based
# T1 sequence (whole entry): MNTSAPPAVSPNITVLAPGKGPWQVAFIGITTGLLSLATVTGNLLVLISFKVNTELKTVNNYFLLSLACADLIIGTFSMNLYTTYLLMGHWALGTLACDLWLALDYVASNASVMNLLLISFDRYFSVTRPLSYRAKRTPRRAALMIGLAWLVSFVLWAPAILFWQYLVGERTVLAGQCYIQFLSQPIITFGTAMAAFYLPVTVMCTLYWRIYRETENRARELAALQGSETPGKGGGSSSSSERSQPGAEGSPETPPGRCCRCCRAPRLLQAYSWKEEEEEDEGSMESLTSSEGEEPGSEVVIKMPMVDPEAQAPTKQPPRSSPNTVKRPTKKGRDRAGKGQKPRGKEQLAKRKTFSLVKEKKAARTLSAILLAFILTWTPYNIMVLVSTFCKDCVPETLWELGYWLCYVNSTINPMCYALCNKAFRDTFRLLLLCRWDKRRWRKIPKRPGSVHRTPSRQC
# [2] = target: T1, Muscarinic acetylcholine receptor M1 (Homo sapiens); experiment: Positive allosteric modulation of human muscarinic M1 receptor expressed in CHO-NFAT cells assessed as potentiation of acetylcholine-induced calcium flux after 1 hr by FLIPR assay relative to control; type: functional, cell-based; design: concentration or dose not given beside the values
# Plasma [3] = experiment: (§1) Protein binding in rat plasma; type: ADME, cell-free
# Plasma [4] = experiment: (§2) Protein binding in human plasma; type: ADME, cell-free
# [5] = as §1; type: ADME, cell-free; conditions: read-out: PPB (converted)
# [6] = as §2; type: ADME, cell-free; conditions: read-out: PPB (converted)
# [7] = Fraction unbound in rat plasma; type: ADME, cell-free
# P-glycoprotein = experiment: Passive permeability of the compound assessed as P-glycoprotein-mediated drug transport; type: ADME; conditions: not told
# [8] = target: MDR1 (P-glycoprotein, ABCB1) (Homo sapiens, UniProt P08183); experiment: Efflux ratio of the compound assessed as ratio of human MDR1-mediated permeability from basolateral to apical over apical to basolateral side of drug transport; type: ADME; conditions: not told
# [9] = target: MDR1a (multidrug resistance protein 1a) (Rattus norvegicus, UniProt Q6PSM0); experiment: Efflux ratio of the compound assessed as ratio of rat MDR1a-mediated permeability from basolateral to apical over apical to basolateral side of drug transport; type: ADME; conditions: not told
# Plasma [10] = experiment: Plasma concentration in Sprague-Dawley rat at 10 mg/kg, po; type: ADME, organism-based; design: dose 10 mg/kg, route oral; conditions: in vivo
# Brain = experiment: Drug uptake in Sprague-Dawley rat brain at 10 mg/kg, po; type: ADME, organism-based; design: dose 10 mg/kg, route oral; conditions: in vivo, read-out: Drug uptake
# [11] = Ratio of drug level in brain to plasma in Sprague-Dawley rat at 10 mg/kg, po; type: ADME, organism-based; design: dose 10 mg/kg, route oral; conditions: read-out: BPR
# Cerebrospinal fluid = experiment: Drug uptake in Sprague-Dawley rat cerebrospinal fluid at 10 mg/kg, po; type: ADME, organism-based; design: dose 10 mg/kg, route oral; conditions: in vivo, read-out: Drug uptake
# [12] = Ratio of drug uptake in Sprague-Dawley rat cerebrospinal fluid at 10 mg/kg, po to protein binding in rat plasma; type: ADME, organism-based, CSF/Plasma; design: dose 10 mg/kg, route oral; conditions: in vivo
# [13] = target: Voltage-gated inwardly rectifying potassium channel KCNH2 (Homo sapiens, UniProt Q12809); experiment: Inhibition of human ERG
# [14] = Fraction unbound in human plasma; type: ADME, cell-free
# Mus musculus [15] = experiment: Inhibition of scopolamine-induced memory deficit in ip dosed contextual fear conditioning memory model of mouse by measuring freezing behavior at 33 uM of plasma concentration after 24 hrs […] relative to control; type: functional, organism-based
# [16] = target: T1, Muscarinic acetylcholine receptor M1 (Homo sapiens); experiment: Agonist activity at human muscarinic M1 receptor expressed in CHO-NFAT cells assessed as effect on calcium flux up to 10 uM after 1 hr by FLIPR assay; type: functional, cell-based
# [17] = target: T2, Muscarinic acetylcholine receptor M2 (Homo sapiens) (UniProt P08172); experiment: Agonist activity at human muscarinic M2 receptor expressed in CHO-NFAT cells assessed as potentiation of acetylcholine-induced calcium flux at up to 100 uM after 1 hr by FLIPR assay; type: functional, cell-based
# T2 sequence (whole entry): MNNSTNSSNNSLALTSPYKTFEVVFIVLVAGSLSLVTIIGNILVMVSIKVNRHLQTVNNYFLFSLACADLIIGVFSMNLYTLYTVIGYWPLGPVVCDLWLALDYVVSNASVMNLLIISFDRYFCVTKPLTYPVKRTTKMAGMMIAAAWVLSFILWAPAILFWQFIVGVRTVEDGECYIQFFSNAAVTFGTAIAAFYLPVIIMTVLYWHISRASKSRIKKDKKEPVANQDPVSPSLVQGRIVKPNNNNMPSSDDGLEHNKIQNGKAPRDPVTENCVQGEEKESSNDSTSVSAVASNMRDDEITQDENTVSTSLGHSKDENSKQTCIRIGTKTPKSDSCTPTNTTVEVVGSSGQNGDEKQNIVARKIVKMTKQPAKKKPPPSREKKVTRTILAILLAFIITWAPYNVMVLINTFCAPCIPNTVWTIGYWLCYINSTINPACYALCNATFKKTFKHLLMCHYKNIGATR
# [18] = target: Muscarinic acetylcholine receptor M3 (Homo sapiens) (UniProt P20309); experiment: Agonist activity at human muscarinic M3 receptor expressed in CHO-NFAT cells assessed as potentiation of acetylcholine-induced calcium flux at up to 100 uM after 1 hr by FLIPR assay; type: functional, cell-based
# [19] = target: T3, Muscarinic acetylcholine receptor M4 (Homo sapiens) (UniProt P08173); experiment: Agonist activity at human muscarinic M4 receptor expressed in CHO-NFAT cells assessed as potentiation of acetylcholine-induced calcium flux at up to 100 uM after 1 hr by FLIPR assay; type: functional, cell-based
# T3 sequence (whole entry): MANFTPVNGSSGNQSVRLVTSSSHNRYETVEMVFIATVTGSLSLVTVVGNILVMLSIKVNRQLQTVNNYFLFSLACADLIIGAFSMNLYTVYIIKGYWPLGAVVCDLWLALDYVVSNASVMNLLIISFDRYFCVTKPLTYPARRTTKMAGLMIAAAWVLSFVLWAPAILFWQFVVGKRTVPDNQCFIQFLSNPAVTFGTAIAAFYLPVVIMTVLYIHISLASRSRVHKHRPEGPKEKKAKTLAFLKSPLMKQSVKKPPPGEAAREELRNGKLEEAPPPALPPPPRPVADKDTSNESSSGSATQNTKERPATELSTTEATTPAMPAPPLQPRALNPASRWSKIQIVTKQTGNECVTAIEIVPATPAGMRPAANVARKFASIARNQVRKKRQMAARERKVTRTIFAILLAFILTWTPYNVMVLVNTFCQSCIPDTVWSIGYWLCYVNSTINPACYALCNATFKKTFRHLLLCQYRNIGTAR
# [20] = target: T2, Muscarinic acetylcholine receptor M2 (Homo sapiens); experiment: Antagonist activity at human muscarinic M2 receptor expressed in CHO-NFAT cells assessed as inhibition of acetylcholine-induced calcium flux at up to 100 uM after 1 hr by FLIPR assay; type: functional, cell-based
# [21] = target: Muscarinic acetylcholine receptor M3 (Homo sapiens) (UniProt P20309); experiment: Antagonist activity at human muscarinic M3 receptor expressed in CHO-NFAT cells assessed as inhibition of acetylcholine-induced calcium flux at up to 100 uM after 1 hr by FLIPR assay; type: functional, cell-based
# [22] = target: T3, Muscarinic acetylcholine receptor M4 (Homo sapiens); experiment: Antagonist activity at human muscarinic M4 receptor expressed in CHO-NFAT cells assessed as inhibition of acetylcholine-induced calcium flux at up to 100 uM after 1 hr by FLIPR assay; type: functional, cell-based
# Mus musculus [23] = experiment: Inhibition of scopolamine-induced memory deficit in ip dosed contextual fear conditioning memory model of mouse by measuring freezing behavior after 24 hrs […] relative to control; type: functional, organism-based
# Mus musculus [24] = experiment: Inhibition of scopolamine-induced memory deficit in contextual fear conditioning memory model of mouse by measuring freezing behavior at 30 mg/kg, ip at 7.4 uM of plasma concentration after 24 hrs […] relative to control; type: functional, organism-based; design: dose 30 mg/kg
# [25] = Oral bioavailability in Sprague-Dawley rat at 10 mg/kg; type: ADME, organism-based; conditions: in vivo
# [26] = Half life in Sprague-Dawley rat at 10 mg/kg, po and 2 mg/kg, iv; type: ADME, organism-based; conditions: in vivo
# [27] = Clearance in Sprague-Dawley rat at 10 mg/kg, po and 2 mg/kg, iv; type: ADME, organism-based; conditions: in vivo
# [28] = Oral bioavailability in dog at 10 mg/kg; type: ADME, organism-based, Canis lupus familiaris; conditions: in vivo
# [29] = Half life in dog at 10 mg/kg, po and 2 mg/kg, iv; type: ADME, organism-based, Canis lupus familiaris; conditions: in vivo
# [30] = Clearance in dog at 10 mg/kg, po and 2 mg/kg, iv; type: ADME, organism-based, Canis lupus familiaris; conditions: in vivo
# Chain of Voltage-gated inwardly rectifying potassium channel KCNH2 (Q12809 whole entry): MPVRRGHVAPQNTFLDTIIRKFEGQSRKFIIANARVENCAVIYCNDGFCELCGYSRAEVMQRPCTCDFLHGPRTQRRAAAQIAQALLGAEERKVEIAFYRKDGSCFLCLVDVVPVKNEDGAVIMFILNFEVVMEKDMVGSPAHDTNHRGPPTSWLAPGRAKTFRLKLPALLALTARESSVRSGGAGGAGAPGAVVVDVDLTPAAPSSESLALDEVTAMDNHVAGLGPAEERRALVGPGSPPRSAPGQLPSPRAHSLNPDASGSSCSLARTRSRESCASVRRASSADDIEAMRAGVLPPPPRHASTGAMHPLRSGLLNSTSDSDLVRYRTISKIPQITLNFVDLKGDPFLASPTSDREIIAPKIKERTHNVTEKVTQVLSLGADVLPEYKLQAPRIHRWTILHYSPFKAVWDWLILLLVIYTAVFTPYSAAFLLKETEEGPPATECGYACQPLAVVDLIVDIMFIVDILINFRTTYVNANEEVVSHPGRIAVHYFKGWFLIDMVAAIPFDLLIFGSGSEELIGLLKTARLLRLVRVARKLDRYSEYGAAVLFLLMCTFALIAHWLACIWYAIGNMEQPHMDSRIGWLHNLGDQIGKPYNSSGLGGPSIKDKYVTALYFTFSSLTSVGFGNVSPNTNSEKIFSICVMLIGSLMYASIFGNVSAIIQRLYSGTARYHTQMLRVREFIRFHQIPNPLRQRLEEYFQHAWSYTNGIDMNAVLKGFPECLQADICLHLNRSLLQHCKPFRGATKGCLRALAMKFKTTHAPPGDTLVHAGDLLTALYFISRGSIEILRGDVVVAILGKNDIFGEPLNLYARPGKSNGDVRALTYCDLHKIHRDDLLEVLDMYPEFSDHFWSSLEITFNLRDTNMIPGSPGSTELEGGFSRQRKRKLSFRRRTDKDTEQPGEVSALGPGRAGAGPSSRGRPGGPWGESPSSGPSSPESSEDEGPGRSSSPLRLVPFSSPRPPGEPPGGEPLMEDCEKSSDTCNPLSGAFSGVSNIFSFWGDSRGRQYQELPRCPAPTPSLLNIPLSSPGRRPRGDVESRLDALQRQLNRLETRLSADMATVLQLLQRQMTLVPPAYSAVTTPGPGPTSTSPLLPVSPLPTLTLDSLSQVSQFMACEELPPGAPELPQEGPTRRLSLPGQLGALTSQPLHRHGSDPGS
# Chain of MDR1 (P-glycoprotein, ABCB1) (P08183 whole entry): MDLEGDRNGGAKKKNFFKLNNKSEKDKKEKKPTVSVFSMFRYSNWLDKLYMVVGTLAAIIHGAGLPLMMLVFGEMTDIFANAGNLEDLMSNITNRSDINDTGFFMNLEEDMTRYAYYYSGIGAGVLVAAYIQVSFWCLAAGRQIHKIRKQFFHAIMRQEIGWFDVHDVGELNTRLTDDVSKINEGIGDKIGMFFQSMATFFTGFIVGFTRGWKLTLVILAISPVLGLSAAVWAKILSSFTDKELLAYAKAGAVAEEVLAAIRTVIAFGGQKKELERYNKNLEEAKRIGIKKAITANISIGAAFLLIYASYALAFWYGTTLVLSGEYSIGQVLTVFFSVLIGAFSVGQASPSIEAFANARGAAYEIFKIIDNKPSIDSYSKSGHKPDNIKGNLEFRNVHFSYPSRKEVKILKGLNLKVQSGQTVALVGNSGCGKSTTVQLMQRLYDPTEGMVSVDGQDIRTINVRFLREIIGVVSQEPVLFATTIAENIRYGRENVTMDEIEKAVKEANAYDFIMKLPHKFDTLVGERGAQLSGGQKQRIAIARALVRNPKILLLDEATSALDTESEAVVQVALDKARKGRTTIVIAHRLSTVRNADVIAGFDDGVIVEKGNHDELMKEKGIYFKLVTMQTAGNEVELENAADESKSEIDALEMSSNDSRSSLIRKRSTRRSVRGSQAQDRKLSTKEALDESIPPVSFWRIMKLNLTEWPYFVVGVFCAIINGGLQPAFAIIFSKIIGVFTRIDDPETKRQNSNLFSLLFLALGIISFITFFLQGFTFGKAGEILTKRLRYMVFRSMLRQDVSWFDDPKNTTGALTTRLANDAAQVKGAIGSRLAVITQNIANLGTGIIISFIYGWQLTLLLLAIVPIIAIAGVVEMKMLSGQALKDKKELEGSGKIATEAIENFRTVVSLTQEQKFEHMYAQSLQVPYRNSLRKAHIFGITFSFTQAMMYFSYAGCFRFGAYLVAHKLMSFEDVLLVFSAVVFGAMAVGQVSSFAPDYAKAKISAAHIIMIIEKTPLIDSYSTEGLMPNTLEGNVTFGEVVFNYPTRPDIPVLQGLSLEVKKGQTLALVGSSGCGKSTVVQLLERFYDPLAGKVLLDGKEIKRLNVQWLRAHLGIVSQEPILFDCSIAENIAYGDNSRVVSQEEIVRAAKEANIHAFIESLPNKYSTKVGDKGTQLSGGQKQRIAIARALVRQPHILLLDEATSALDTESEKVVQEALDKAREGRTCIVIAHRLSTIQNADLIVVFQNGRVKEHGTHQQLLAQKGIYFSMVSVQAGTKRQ
# Chain of MDR1a (multidrug resistance protein 1a) (Q6PSM0 whole entry): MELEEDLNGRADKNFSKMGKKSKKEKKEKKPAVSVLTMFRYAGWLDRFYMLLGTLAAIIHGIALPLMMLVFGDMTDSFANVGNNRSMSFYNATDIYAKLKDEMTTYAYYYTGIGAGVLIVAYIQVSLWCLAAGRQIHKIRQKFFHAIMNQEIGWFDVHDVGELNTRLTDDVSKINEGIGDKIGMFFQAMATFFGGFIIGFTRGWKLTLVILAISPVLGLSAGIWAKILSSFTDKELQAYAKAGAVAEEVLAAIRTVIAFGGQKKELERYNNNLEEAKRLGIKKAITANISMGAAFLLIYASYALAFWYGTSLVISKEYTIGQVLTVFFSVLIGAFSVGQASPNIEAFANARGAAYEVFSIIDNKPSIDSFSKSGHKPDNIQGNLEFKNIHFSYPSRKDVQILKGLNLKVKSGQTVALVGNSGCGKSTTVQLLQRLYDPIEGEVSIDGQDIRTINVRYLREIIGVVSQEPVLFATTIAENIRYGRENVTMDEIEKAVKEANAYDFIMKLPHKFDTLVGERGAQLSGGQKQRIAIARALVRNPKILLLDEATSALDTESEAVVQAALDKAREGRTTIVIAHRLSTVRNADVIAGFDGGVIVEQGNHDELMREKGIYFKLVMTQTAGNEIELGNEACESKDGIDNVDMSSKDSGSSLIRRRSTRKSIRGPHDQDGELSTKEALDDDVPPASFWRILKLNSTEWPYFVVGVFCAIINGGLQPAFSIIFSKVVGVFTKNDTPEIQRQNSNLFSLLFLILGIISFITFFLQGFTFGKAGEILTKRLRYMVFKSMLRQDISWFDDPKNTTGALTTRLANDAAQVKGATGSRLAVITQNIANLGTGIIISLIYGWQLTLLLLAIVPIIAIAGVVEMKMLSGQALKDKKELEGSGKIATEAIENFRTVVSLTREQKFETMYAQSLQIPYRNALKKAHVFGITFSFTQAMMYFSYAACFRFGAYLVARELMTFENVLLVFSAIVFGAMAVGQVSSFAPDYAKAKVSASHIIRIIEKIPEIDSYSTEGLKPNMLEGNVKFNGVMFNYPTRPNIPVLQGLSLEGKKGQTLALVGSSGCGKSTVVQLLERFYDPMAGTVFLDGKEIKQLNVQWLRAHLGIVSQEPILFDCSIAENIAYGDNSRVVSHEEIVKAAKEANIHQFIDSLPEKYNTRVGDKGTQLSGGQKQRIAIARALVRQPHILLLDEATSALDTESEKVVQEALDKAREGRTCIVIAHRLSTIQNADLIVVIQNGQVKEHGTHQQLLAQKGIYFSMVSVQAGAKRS
# Chain of Muscarinic acetylcholine receptor M3 (Homo sapiens) (P20309 whole entry, looked up): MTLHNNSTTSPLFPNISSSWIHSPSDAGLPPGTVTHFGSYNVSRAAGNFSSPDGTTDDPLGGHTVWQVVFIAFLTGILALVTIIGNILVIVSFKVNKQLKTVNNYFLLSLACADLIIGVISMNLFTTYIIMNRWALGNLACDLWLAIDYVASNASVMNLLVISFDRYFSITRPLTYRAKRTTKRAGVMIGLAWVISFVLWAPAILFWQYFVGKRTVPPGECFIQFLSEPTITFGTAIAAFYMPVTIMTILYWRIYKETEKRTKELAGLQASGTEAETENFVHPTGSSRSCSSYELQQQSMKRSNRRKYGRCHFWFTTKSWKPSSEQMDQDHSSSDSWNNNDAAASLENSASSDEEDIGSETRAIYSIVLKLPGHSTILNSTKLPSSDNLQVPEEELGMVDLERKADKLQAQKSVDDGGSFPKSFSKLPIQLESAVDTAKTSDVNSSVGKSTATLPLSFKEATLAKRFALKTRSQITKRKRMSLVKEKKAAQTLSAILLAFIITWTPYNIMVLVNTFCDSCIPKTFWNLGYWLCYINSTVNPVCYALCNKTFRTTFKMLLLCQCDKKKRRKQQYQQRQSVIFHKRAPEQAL
smiles,measurement,setting,value
O=C(O)c1cc(Cc2ccc(-c3ccccc3)cc2)c2ccccn2c1=O,Activity,[1],0.11 µM
same,Activity,[2],86%
same,PPB,Plasma [3],ND(Insoluble)
same,PPB,Plasma [4],ND(Insoluble)
O=C(O)c1cc(C(=O)c2ccccc2)c2ccccn2c1=O,Activity,[1],> 100 µM
O=C(O)c1cc(Cc2ccccc2)c2ccccn2c1=O,Activity,[1],0.92 µM
same,Activity,[2],81%
O=C(O)c1cc(C(O)c2ccccc2)c2ccccn2c1=O (stereo unspecified),Activity,[1],> 100 µM
O=C(O)c1cc(CN2CCN(c3ccc(Br)cc3)CC2)c2ccccn2c1=O,Activity,[1],0.13 µM
same,Activity,[2],77%
same,fraction unbound,[5],0.039
same,fraction unbound,[6],0.065
same,fraction unbound,[7],0.04
same,Papp,P-glycoprotein,16 ×10⁻⁶ cm/s
same,efflux ratio,[8],0.1
same,efflux ratio,[9],0.6
same,concentration,Plasma [10],3650 nM
same,concentration,Brain,4580 nM
same,Kp,[11],1.3
same,concentration,Cerebrospinal fluid,70 nM
same,Ratio,[12],0.32
same,IC50,[13],2.1 µM
O=C(O)c1cc(CN2CCC(c3ccccc3)C2)c2ccccn2c1=O (stereo unspecified),Activity,[1],> 100 µM
O=C(O)c1cc(CN2CCN(c3ccccc3)CC2)c2ccccn2c1=O,Activity,[1],0.93 µM
same,Activity,[2],52%
same,fraction unbound,[5],0.369
same,fraction unbound,[6],0.26
same,fraction unbound,[7],> 0.25
same,fraction unbound,[14],> 0.25
O=C(O)c1cc(CN2CCN(c3ccncc3)CC2)c2ccccn2c1=O,Activity,[1],1.5 µM
same,Activity,[2],86%
same,Papp,P-glycoprotein,< 5 ×10⁻⁶ cm/s
same,concentration,Plasma [10],2070 nM
same,concentration,Brain,59 nM
same,Kp,[11],0.03
same,concentration,Cerebrospinal fluid,16 nM
same,Ratio,[12],0.02
O=C(O)c1cc(CN2CCN(c3ccc(C(F)(F)F)cc3)CC2)c2ccccn2c1=O,Activity,[1],0.27 µM
same,Activity,[2],67%
same,fraction unbound,[5],0.034
same,fraction unbound,[6],0.049
same,Papp,P-glycoprotein,32 ×10⁻⁶ cm/s
same,efflux ratio,[8],1.4
same,efflux ratio,[9],1.3
same,concentration,Plasma [10],1140 nM
same,concentration,Brain,3080 nM
same,Kp,[11],2.7
same,concentration,Cerebrospinal fluid,14 nM
same,Ratio,[12],0.25
same,IC50,[13],0.1 µM
O=C(O)c1cc(Cc2ccc(-c3ccccn3)cc2)c2ccccn2c1=O,Activity,[1],0.061 µM
same,Activity,[2],78%
O=C(O)c1cc(Cc2ccc(Cl)cc2)c2ccccn2c1=O,Activity,[1],0.2 µM
same,Activity,[2],93%
O=C(O)c1cc(CN2CCCCC2)c2ccccn2c1=O,Activity,[1],7.6 µM
same,Activity,[2],87%
O=C(O)c1cc(Cc2ccc(-c3cccnc3)cc2)c2ccccn2c1=O,Activity,[1],0.075 µM
same,Activity,[2],74%
same,fraction unbound,[5],0.015
same,fraction unbound,[6],0.003
COc1ccc(Cn2cc(C(=O)O)c(=O)c3ccccc32)cc1,inhibition,Mus musculus [15],inactive
O=C(O)c1cc(CN2CCN(c3ccccc3)C(=O)C2)c2ccccn2c1=O,Activity,[1],1.1 µM
same,Activity,[2],89%
same,fraction unbound,[5],0.62
same,fraction unbound,[6],0.479
O=C(O)c1cc(CN2CCC(c3ccccc3)CC2)c2ccccn2c1=O,Activity,[1],1.3 µM
same,Activity,[2],58%
N#Cc1ccc(N2CCN(Cc3cc(C(=O)O)c(=O)n4ccccc34)CC2)cc1,Activity,[1],0.52 µM
same,Activity,[2],94%
same,fraction unbound,[5],0.062
same,fraction unbound,[6],0.134
same,Papp,P-glycoprotein,22 ×10⁻⁶ cm/s
same,efflux ratio,[8],0.7
same,efflux ratio,[9],1.9
same,concentration,Plasma [10],1500 nM
same,concentration,Brain,248 nM
same,Kp,[11],0.17
same,concentration,Cerebrospinal fluid,85 nM
same,Ratio,[12],0.42
same,IC50,[13],7.4 µM
same,Activity,[16],inactive
same,Activity,[17],inactive
same,Activity,[18],inactive
same,Activity,[19],inactive
same,inhibition,[20],inactive
same,inhibition,[21],inactive
same,inhibition,[22],inactive
same,inhibition,Mus musculus [23],Dose-dependent effect
same,inhibition,Mus musculus [24],Active
same,inhibition,Mus musculus [15],Active
same,bioavailability,[25],23%
same,half-life,[26],6.4 h
same,clearance,[27],10.8 mL/min/kg
same,bioavailability,[28],33%
same,half-life,[29],2.5 h
same,clearance,[30],13 mL/min/kg
